Active and inactive are the calls of the source. The calls are words filed in the database; no cut-off is given here.
What was measured:
HCT-116 [1] = test: Induction of apoptosis in human HCT116 cells assessed as increase in cell debris at 30 uM after 18 hrs; type: functional, cell-based
HCT-116 [2] = test: Antiproliferative activity against human HCT116 cells at 30 uM for 24 hrs by MTT assay; type: functional
HCT-116 [3] = test: Cell cycle arrest in human HCT116 cells assessed as accumulation in G2/M phase at 30 uM after 12 hrs; type: functional, cell-based
HCT-116 [4] = test: Antiproliferative activity against human HCT116 cells at 100 uM for 24 hrs by MTT assay; type: functional
HCT-116 [5] = test: Induction of apoptosis in human HCT116 cells assessed as morphological changes at 100 uM after 24 hrs; type: functional, cell-based
[6] = Cell cycle arrest in human EC9706 cells assessed as accumulation in G2/M phase at 30 uM after 18 hrs; type: functional, cell-based
[7] = (§1) Antiproliferative activity against human EC9706 cells at 75 uM for 24 hrs by MTT assay; type: functional
[8] = (§2) Antiproliferative activity against human EC9706 cells at 100 uM for 24 hrs by MTT assay; type: functional
[9] = Cell cycle arrest in human EC9706 cells assessed as accumulation in G2/M phase at 30 uM after 12 hrs; type: functional, cell-based
EC9706 [10] = test: Induction of apoptosis in human EC9706 cells assessed as morphological changes at 100 uM after 24 hrs; type: functional, cell-based
EC9706 [11] = test: as §1; type: functional
EC9706 [12] = test: as §2; type: functional

Compound	Activity (HCT-116 [1])	Activity (HCT-116 [2])	Activity (HCT-116 [3])	Activity (HCT-116 [4])	Activity (HCT-116 [5])	Activity [6]	Activity [7] [%]	Activity [8] [%]	Activity [9]	Activity (EC9706 [10])	Activity (EC9706 [11])	Activity (EC9706 [12])
H-KAQIRAMECNILGRKKRRQRRR-OH	Active	55%	Active	16%	Active	Active	69	52	Active	Active		
H-KAQIRAMECNIL-OH		inactive		inactive							inactive	inactive
N=C(N)NCCC[C@H](NC(=O)[C@H](CCCNC(=N)N)NC(=O)[C@H](CCCNC(=N)N)NC(=O)[C@H](CCC(N)=O)NC(=O)[C@H](CCCNC(=N)N)NC(=O)[C@H](CCCNC(=N)N)NC(=O)[C@H](CCCCN)NC(=O)[C@H](CCCCN)NC(=O)[C@@H](N)CCCNC(=N)N)C(=O)O		inactive		inactive	inactive	inactive			inactive	inactive	inactive	inactive
